Laboratory results: patent publication US8956842B2, “Paenibacillus sp. HPL-3 strain producing xylanase having heat-resistance, a wide range of optimum pH and high activity, a novel xylanase separated from the strain, and a method for mass-production of the same using the transformant originated from the strain” (Korea Research Institute of Chemical Technology, priority 2011, dated 2015)
Where two headings read alike, the source gives them in different places.

Columns and labels:
[1] = tested on: novel xylanase; experiment: Effect of metal ions and additives on xylanase activity (DNS method); format: biochemical, Paenibacillus sp. HPL-3
Procedure: (§1) The measurement of xylanase activity (xylan decomposing activity) of the isolated strain, active clone, transformant, and isolated/purified enzyme was performed by either or both of the following two methods. The first method was enzyme activity measuring method using solid culture. Particularly, soft agar double medium was prepared by adding birch xylan (Fluka Bio Chemika. Co.) to LB medium by 0.5˜1.0%, to which the strain was inoculated, followed by culture for overnight. On the next day, the strain and active clone forming translucent zone (halo) around the cultured colony were selected by Congo-red staining. The second method was enzyme activity measuring method using liquid culture, that is DNS (3,5-dinitrosalicylic acid) quantitative method (Miller G. L. Anal Chem 31, 426-428, 1959). Particularly, 50 μl of substrate solution (50 mM Tris-HCl containing birch xylan by 2%, pH 7.0) was added to 50 μl of enzyme solution, followed by reaction at 50° C. for 20 minutes. 200 μl of DNS solution was added thereto, followed by further reaction at 90° C. for 5 minutes. Then, OD540 was measured. 1 unit of the enzyme was defined as the enzyme activity of 1 mg xylanase to produce 1 μmol of reducing sugar (xylose) per 1 minute.
To investigate the effect of metal ions on xylanase activity, CaCl2, MgCl2, MgCl2, CuCl2, ZnCl2, and FeCl3 were added by 1 mM each. It was further investigated how other salts such as NaCl, LiCl, KCl, NH4Cl, EDTA, CsCl2, 2-ME (2-Mercaptoethanol), DTT (Dithiothreitol), PMSF (Penylmethylsulfonyl fluoride), acetate, and furfural could affect xylanase activity.

[2] = Enzymatic reaction rate (Lineweaver-Burk) of the purified xylanase; format: biochemical
[3] = Xylanase activity (xylan decomposing activity) by DNS quantitative method at different pH and temperature; format: biochemical
Procedure: as §1, with “minute. One clone showing the best activity, GM3-SLX1, was selected by liquid culture and solid culture activity test (FIG. 2).” for “minute.”
In this example, pH, temperature, and metal ion-dependent activity of xylanase over-expressed and isolated from the E. coli transformant over-expressing the novel xylanase constructed in Example <3-4> was investigated by the same manner as described in example 3-2. pH of the reaction solution was regulated to pH 4˜5 with citric acid buffer, to pH 6˜8 with phosphate buffer, to pH 7˜9 with Tris/HCl buffer, and to pH 9˜11 with glycine/NaOH buffer. To investigate the effect of metal ions on xylanase activity, CaCl2, MgCl2, MgCl2, CuCl2, ZnCl2, and FeCl3 were added by 1 mM each. It was further investigated how other salts such as NaCl, LiCl, KCl, NH4Cl, EDTA, CsCl2, 2-ME (2-Mercaptoethanol), DTT (Dithiothreitol), PMSF (Penylmethylsulfonyl fluoride), acetate, and furfural could affect xylanase activity.
E. coli BL21-Gold (DE) (Stratagene, USA) was transfected with pIVEX GST-xylanase recombinant vector (Bioprogen Co., Ltd., Korea) containing the gene (SEQ. ID. NO: 3) encoding the novel xylanase represented by SEQ. ID. NO: 4, which was inoculated in liquid medium (LB 25 g/L) supplemented with ampicillin (50 μg/ml), followed by shaking culture at 37° C. at 150 rpm until […] reached 0.4˜0.6. To induce the expression of the target protein in E. coli cells, IPTG (isopropyl-D-thiogalactoside) was added to the suspension at the concentration of 1 mM, followed by further culture for 3 hours. The culture solution was centrifuged at 10,000 rpm for 10 minutes and the recovered precipitate was washed with PBS twice. The washed precipitate was re-suspended in PBS and then cell were lysed by using a ultrasonicator (Cosmo Bio Co., LTD). Centrifugation was performed (12,000 rpm, 10 minutes) to obtain supernatant. To isolate xylanase from the supernatant, glutathione S-transferase column (GST binding resin column, Novagen) was used. For xylanase separation, the obtained supernatant was filled in glutathione S-transferase column (GST binding resin column, Novagen) equilibrated with washing buffer (50 mM Tris-HCl, 100 mM NaCl; pH 7.0), followed by treatment of factor Xa protease (NEB) and separation using washing buffer (50 mM Tris-HCl, 100 mM NaCl; pH 7.0). The enzyme activity of xylanase in each sample recovered from the purification stage was investigated. The purification of active fraction showing the enzyme activity was confirmed by SDS-PAGE. Protein content was measured by using Bradford method (Bradford, Sigma Aldrich), and BSA (bovine serum albumin) was used as the standard protein.

[4] = 1 mM additive, negative control = 100
[5] = 1 mM of heavy metal or additive

Question: With Cl.N [NH4Cl] as the molecule, how does the “Relative activity according to conc. of additive (%)” value (from here on “Relative activity according … (%)”) [1, 4] read?
Answer: Its value is 99%.

Question: For O[C@H](CS)[C@H](O)CS (racemic) [DTT, Dithiothreitol], which “Relative activity according … (%)” value [1, 4] is on record?
Answer: Its value is 95%.

Question: For [Cl-].[Cl-].[Mg+2] [MgCl2], which “Relative activity according … (%)” value [1, 4] is on record?
Answer: The value was 93%.

Question: Which “Relative activity according … (%)” value [1, 4] does the source give for O=Cc1ccco1 [Furfural, furfural] here?
Answer: Its value is 98%.

Question: What does the source list for O=S(=O)([O-])[O-].[Zn+2] [ZnSO4]?
Answer: Relative activity according to conc. of additive (%) [1, 4]: 72%; xylanase activity inhibited by [1, 5]: 28%; enzyme activity in presence of additive ([1]; concentration of 100 HM): hardly affected

Question: For [Cl-].[K+] [KCl], which “Relative activity according … (%)” value [1, 4] is on record?
Answer: Its value is 101%.

Question: For O=C(O)CN(CCN(CC(=O)O)CC(=O)O)CC(=O)O [EDTA], which “Relative activity according … (%)” value [1] is on record?
Answer: The value was 54%.

Question: What about the “enzyme activity in presence of additive” value [1] of the same molecule?
Answer: The value was “hardly affected”.

Question: What about the “xylanase activity inhibited by” value [1] of the same molecule?
Answer: Its value is 46%.

Question: With O=S(=O)(F)Cc1ccccc1 [PMSF, Penylmethylsulfonyl fluoride] as the molecule, how does the “Relative activity according … (%)” value [1, 4] read?
Answer: Its value is 95%.

Question: For [Ca+2].[Cl-].[Cl-] [CaCl2], which “Relative activity according … (%)” value [1, 4] is on record?
Answer: The value was 102%.

Question: With [Cl-].[Cs+] [CsCl2] as the molecule, how does the “Relative activity according … (%)” value [1, 4] read?
Answer: The value was 97%.

Question: For [Cl-].[Li+] [LiCl], which “Relative activity according … (%)” value [1, 4] is on record?
Answer: Its value is 101%.

Question: What does the source list for [Cl][Fe]([Cl])[Cl] [FeCl3]?
Answer: Relative activity according to conc. of additive (%) [1, 4]: 88%; xylanase activity inhibited by [1, 5]: 12%; enzyme activity in presence of additive ([1]; concentration of 100 HM): hardly affected

Question: Which “Relative activity according … (%)” value [1, 4] does the source give for [Cl][Mn][Cl] [MnCl2] here?
Answer: The value was 98%.

Question: For CC(=O)O [Acetate], which “Relative activity according … (%)” value [1, 4] is on record?
Answer: The value was 101%.

Question: Which “Relative activity according … (%)” value [1, 4] does the source give for OCCS [2-ME, 2-Mercaptoethanol] here?
Answer: The value was 89%.

Question: For O=S(=O)([O-])[O-].[Cu+2] [CuSO4], which “Relative activity according … (%)” value [1, 4] is on record?
Answer: Its value is 26%.

Question: What about the “xylanase activity inhibited by” value [1, 5] of the same molecule?
Answer: The value was 74%.

Question: What about the “enzyme activity in presence of additive” value ([1]; concentration of 100 HM) of the same molecule?
Answer: Its value is “hardly affected”.

Question: With [Cl-].[Na+] [NaCl] as the molecule, how does the “Relative activity according … (%)” value [1] read?
Answer: The value was 105%.

B1: novel xylanase: approximately 65 kD xylanase of Paenibacillus sp. HPL-3, amino acid sequence SEQ. ID. NO: 4, produced in E. coli transformant (protein)
chain: MDTLKLYVESSNPAQAYYLDEVEIRQVSETPTTPPTEPTSGIESRFEDGTAQGWVSRMGTETVQVSNADARTGSYSLLTTGRQQTYAGPKLDVTATVQKGSRYTVSAWVKLAPGEQQPAKVRLSVQRDHQGESTYETVVGNTAITTGGWTHLYGTYTLAHEADTVSMYLETPEGTASFYMDDFELSLVPPLAIEKDIPSLHGLYQGQFSIGTAIEAFQTEGAYGELVQKHFNSVVAGNAMKPISLQPSEGQFHWEEADRIVQFAQQHGIAIRFHTLVWHNQTGDWMFKDKNGQPMTPTAENKKLLLDRLETHIRAVAARYKNVITDWDVVNEVIDPDQPDGMRRSKWYQITGTDYIDKAFRVTREAAGPNARLYINDYNTHEPKKRDFLYNLVRDLLAKGVPIDGVGHQSHIRLEFPAIDEMEQSIEKFASLGLDNQITELDMGLYSNDTDHYETIPEAMLIRQAHRYRALFDMFSRQQEHISNVTIWGTDDGNTWLSMFPIARLDKPLLFDERLKAKYAYWALVDPSKVPPLPAGSNE
modifications: SLX-O9 protein sequence
notes: approximately 65 kD xylanase of Paenibacillus sp; ID; NO: 4, produced in E. coli transformant
Question: With B1 as the molecule, how does the “xylanase activity against other xylans (beech, oats, etc) compared with birch xylan” value [2] read?
Answer: Its value is “similar”.

Question: And the enzyme activity ([3]; 50° C., pH 5.0)?
Answer: Its enzyme activity is 97.37 units.

Question: What about the enzyme activity ([3]; 50° C., pH 6.0) of the same molecule?
Answer: Its enzyme activity is 124.19 units.

Question: And the enzyme activity ([3]; 50° C., pH 7.0)?
Answer: The enzyme activity was 122.21 units.

Question: What about the enzyme activity ([3]; 50° C., pH 8.0) of the same molecule?
Answer: Its enzyme activity is 124.61 units.

Question: And the enzyme activity ([3]; 50° C., pH 9.0)?
Answer: The enzyme activity was 122.95 units.

Question: What about the enzyme activity ([3]; 50° C., pH 10.0) of the same molecule?
Answer: Its enzyme activity is 103.27 units.

Question: What about the enzyme activity ([3]; 50° C., pH 11.0) of the same molecule?
Answer: Its enzyme activity is 96.08 units.

Question: What about the enzyme activity ([3]; 60° C., pH 5.0, units = μM of xylose produced by 1 mg of enzyme per 1 minute) of the same molecule?
Answer: The enzyme activity was 26.93 units.

Question: And the enzyme activity ([3]; 60° C., pH 6.0)?
Answer: The enzyme activity was 105.19 units.

Question: What about the enzyme activity ([3]; 60° C., pH 7.0) of the same molecule?
Answer: Its enzyme activity is 123.56 units.

Question: And the enzyme activity ([3]; 60° C., pH 8.0)?
Answer: The enzyme activity was 120.95 units.

Question: What about the enzyme activity ([3]; 60° C., pH 9.0) of the same molecule?
Answer: The enzyme activity was 112.25 units.

Question: And the enzyme activity ([3]; 60° C., pH 10.0)?
Answer: Its enzyme activity is 29.89 units.

Question: What about the enzyme activity ([3]; 60° C., pH 11.0) of the same molecule?
Answer: Its enzyme activity is 22.76 units.

Question: What about the “activity of purified enzyme compared with before purification” value ([3]; after glutathione resin column purification) of the same molecule?
Answer: The value was “at least 5 times”.

Question: And the “xylanase activity when conjugated onto the resin” value ([3]; glutathione resin)?
Answer: The value was “not changed”.
